Measured values from paper PMC5059724, “Purification and characterization of a novel phloretin-2′-O-glycosyltransferase favoring phloridzin biosynthesis” (Scientific Reports, 2016).

Legend:
MdP2′GT [1] = target: MdP2′GT (Malus domestica, UniProt A0A0X9XIE3); assay: Effects of metal ions and other compounds on purified MdP2′GT activity; format: biochemical, Malus x domestica; parameters: key to IC50: ND: no effects detected at selected concentrations; Activator: additions increased MdP2′GT activity at selected concentrations; conditions: for Effect of co-solvent on enzyme activity: 20% co-solvent
MdP2′GT [2] = target: T1, MdP2′GT (Malus domestica, UniProt A0A0X9XIE3); assay: Inhibition of phloridzin formation by purified MdP2′GT from 270 uM UDPG and 20 uM phloretin, 50 mM Tris/HCl pH 7.5, 5 mM DTT, 30 °C, 30 min, product quantified by HPLC-DAD.; format: biochemical
T1 construct: gene P2'GT
T1 sequence (A0A0X9XIE3 1-483): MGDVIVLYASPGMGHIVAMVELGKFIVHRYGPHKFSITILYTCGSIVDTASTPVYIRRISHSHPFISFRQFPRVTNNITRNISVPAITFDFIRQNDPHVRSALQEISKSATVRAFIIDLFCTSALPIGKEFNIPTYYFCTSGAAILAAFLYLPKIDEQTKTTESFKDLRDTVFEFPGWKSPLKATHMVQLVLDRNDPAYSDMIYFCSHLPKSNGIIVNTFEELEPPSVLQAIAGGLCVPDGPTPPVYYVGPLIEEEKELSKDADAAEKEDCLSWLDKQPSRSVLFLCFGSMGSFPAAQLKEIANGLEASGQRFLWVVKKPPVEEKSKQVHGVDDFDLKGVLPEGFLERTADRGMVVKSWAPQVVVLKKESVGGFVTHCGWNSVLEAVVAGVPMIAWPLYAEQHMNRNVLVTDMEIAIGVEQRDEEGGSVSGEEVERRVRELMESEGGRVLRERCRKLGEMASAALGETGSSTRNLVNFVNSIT

UGT71A15 = test system: T2, UGT71A15; assay: Literature Km for 2′-OH glycosylation of phloretin with the UDPG/phloretin combination, quoted in the comparison table.; format: biochemical; conditions: read-out: Km (μM), reported P2′GTs; cited from earlier work
T2 construct: literature enzyme, MW 52 kDa
From the text: (§1) Table 5 Enzyme characters and Kinetic parameters of MdP2′GT and reported P2′GTs. | Km (μM), reported P2′GTs

UGT88F1 = test system: T3, UGT88F1; assay: as above; format: biochemical; conditions: read-out: Km (μM), reported P2′GTs; cited from earlier work
T3 construct: literature enzyme, MW 59 kDa
From the text: as §1

[3] = target: Phloretin-2′-O-glycosyltransferase of Malus x domestica (MdP2′GT) (Malus x domestica); assay: SEC; Sephacryl S-300 column, 5 mg/ml purified MdP2′GT, buffer D (50 mM Tris-HCl pH 7.5, 200 mM NaCl, 5 mM DTT), calibrated with five marker proteins; native protein and protein deglycosylated with PNGase F or Endo H under native conditions; mass confirmed by MALDI-TOF
[4] = 0.5 h, pH 7.5, addition at 5 mM, compared to a control in which none is added, read-out: Relative activity
[5] = addition at 5 mM, compared to a control in which none is added
[6] = addition at 0.5 mM, compared to a control in which none is added
[7] = concentration of inhibitor required to reduce the original MdP2′GT activity by 50%, read-out: IC50
[8] = concentration of inhibitor required to reduce the original MdP2′GT activity by 50%

O[C@@H](CS)[C@@H](O)CS (racemic) [Dithiothreitol]
activity at 5000 µM (MdP2′GT [1]; [4]): 99.2 ± 1.43% | Relative activity (MdP2′GT [1]; [5]): No obvious effects

O=c1ccn([C@@H]2O[C@H](CO[P@@](=O)(O)O[P@@](=O)(O)OP(=O)(O)O)[C@@H](O)[C@H]2O)c(=O)[nH]1 (stereo in doubt) [UTP, uridine triphosphate]
activity at 5000 µM (MdP2′GT [1]; [4]): 3.05 ± 0.26%

O=C(CCc1ccc(O)c(O)c1)c1c(O)cc(O)cc1O[C@@H]1O[C@H](CO)[C@@H](O)[C@H](O)[C@H]1O [3-hydroxyphloridzin, 3-hydroxyphloridzin]
Relative activity (MdP2′GT [1]; [5]): 15.65 ± 0.58%

O=C(CCc1ccc(O)c(O)c1)c1c(O)cc(O)cc1O[C@@H]1O[C@H](CO)[C@@H](O)[C@H](O)[C@H]1O [3-hydroxyphloridzin]
IC50 (MdP2′GT [2]; read-out: IC50/): 2.5 ± 0.2 mM

NCCc1ccc(S(=O)(=O)F)cc1 [AEBSF, 4-(2-Aminoethyl) benzenesulfonyl fluoride]
Relative activity (MdP2′GT [1]; [6]): No obvious effects | Relative activity (MdP2′GT [1]; addition at 0.5 mM, compared to a control in which none is added, 30 min, 500 µM): 99.51 ± 2.36%

[Cl][Al]([Cl])[Cl] [AlCl3]
Relative activity (MdP2′GT [1]; [5]): 67.81 ± 1.03% | Relative activity (MdP2′GT [1]; addition at 5 mM, compared to a control in which none is added, listed as Al^3+): partially inhibited | IC50 (MdP2′GT [1]; [7]): 8 ± 0.5 mM

[Ba+2].[Cl-].[Cl-] [BaCl2]
Relative activity (MdP2′GT [1]; [6]): negligibly affected | Relative activity (MdP2′GT [1]; [5]): 99.03 ± 2.54%

[Ca+2].[Cl-].[Cl-] [CaCl2]
Relative activity (MdP2′GT [1]; [5]): 54.21 ± 1.05% | Relative activity (MdP2′GT [1]; addition at 5 mM, compared to a control in which none is added, listed as Ca^2+): partially inhibited | IC50 (MdP2′GT [1]; [7]): 5.5 ± 0.12 mM

[Cl-].[Cl-].[Co+2] [CoCl2]
IC50 (MdP2′GT [1]; read-out: IC50): 0.05 ± 0.01 mM

[Cl][Cu][Cl] [CuCl2]
Relative activity (MdP2′GT [1]; [5]): 0.00 ± 0.00% | Relative activity (MdP2′GT [1]; addition at 5 mM, compared to a control in which none is added, listed as Cu^2+): completely inhibited | IC50 (MdP2′GT [1]; [7]): 0.01 ± 0.01 mM

C[S+](C)[O-] [Dimethyl sulfoxide]
Effect of co-solvent on enzyme activity (MdP2′GT [1]): no effects | Relative activity (MdP2′GT [1]; addition at 704 mM, compared to a control in which none is added): 99.54 ± 1.40%

[Cl][Fe]([Cl])[Cl] [FeCl3]
IC50 (MdP2′GT [1]; [7]): 6.5 ± 0.23 mM

O=S(=O)([O-])[O-].[Fe+2] [FeSO4]
Relative activity (MdP2′GT [1]; [5]): 119.43 ± 3.61% | IC50 (MdP2′GT [1]; [8]): Activator

OCC(O)CO [Glycerol]
activity at 686000 µM (MdP2′GT [1]; 0.5 h, pH 7.5, addition at 686 mM (text: 5% glycerol), compared to a control in which none is added, read-out: Relative activity): 98.1 ± 2.15% | Relative activity (MdP2′GT [1]; addition at 686 mM (text: 5% glycerol), compared to a control in which none is added): No obvious effects

[Cl-].[K+] [KCl]
Relative activity (MdP2′GT [1]; [6]): negligibly affected | Relative activity (MdP2′GT [1]; [5]): 99.58 ± 2.31%

CO [Methanol]
Effect of co-solvent on enzyme activity (MdP2′GT [1]): no effects | Relative activity (MdP2′GT [1]; addition at 1236 mM, compared to a control in which none is added): 99.23 ± 1.41%

[Cl-].[Cl-].[Mg+2] [MgCl2]
Relative activity (MdP2′GT [1]; addition at 2 mM, compared to a control in which none is added): 130.35 ± 3.53% | Relative activity (MdP2′GT [1]; addition at 2 mM, compared to a control in which none is added, listed as Mg^2+): 130% | IC50 (MdP2′GT [1]; [8]): Activator

O=S(=O)([O-])[O-].[Mn+2] [MnSO4]
Relative activity (MdP2′GT [1]; [5]): 47.41 ± 1.13% | Relative activity (MdP2′GT [1]; addition at 5 mM, compared to a control in which none is added, listed as Mn^2+): partially inhibited | IC50 (MdP2′GT [1]; [7]): 4.5 ± 0.11 mM

CCN1C(=O)C=CC1=O [N-Ethylmaleimide]
activity at 1000 µM (MdP2′GT [1]; 0.5 h, pH 7.5, addition at 1 mM, compared to a control in which none is added, read-out: Relative activity): 20.5 ± 1.08% | Relative activity (MdP2′GT [1]; addition at 1 mM, compared to a control in which none is added): strong inhibition | IC50 (MdP2′GT [1]; [7]): 0.28 ± 0.01 mM

[Cl-].[Na+] [NaCl, Sodium chloride]
Relative activity (MdP2′GT [1]; addition at 500 mM, compared to a control in which none is added): 100 ± 1.00% | Relative activity (MdP2′GT [1]; addition at 500 mM, compared to a control in which none is added, listed as Sodium chloride): no obvious inhibitory effects

[Cl][Ni][Cl] [NiCl2]
Relative activity (MdP2′GT [1]; [6]): negligibly affected | Relative activity (MdP2′GT [1]; [5]): 98.26 ± 2.08%

O=C(CCc1ccc(O)cc1)c1c(O)cc(O)cc1O [Phloretin, phloretin]
Km (UGT71A15): 82 µM | Km (UGT88F1): 0.62 µM

O=C(CCc1ccc(O)cc1)c1c(O)cc(O[C@@H]2O[C@H](CO)[C@@H](O)[C@H](O)[C@H]2O)cc1O [Trilobatin, trilobatin]
IC50 (MdP2′GT [2]; read-out: IC50/): 3 ± 0.21 mM

O=C(CCc1ccc(O)cc1)c1c(O)cc(O[C@@H]2O[C@H](CO)[C@@H](O)[C@H](O)[C@H]2O)cc1O [Trilobatin]
Relative activity (MdP2′GT [1]; [5]): 21.70 ± 1.15%

O=c1ccn([C@@H]2O[C@H](COP(=O)(O)OP(=O)(O)O)[C@@H](O)[C@H]2O)c(=O)[nH]1 [UDP, uridine diphosphate]
IC50 (MdP2′GT [2]; read-out: IC50/): 0.1 ± 0.01 mM

O=c1ccn([C@@H]2O[C@H](COP(=O)(O)O)[C@@H](O)[C@H]2O)c(=O)[nH]1 [UMP, uridine monophosphate]
Relative activity (MdP2′GT [1]; [5]): 38.25 ± 1.07% | IC50 (MdP2′GT [2]; read-out: IC50/): 4 ± 0.13 mM

O=c1ccn([C@@H]2O[C@H](COP(=O)(O)OP(=O)(O)OP(=O)(O)O)[C@@H](O)[C@H]2O)c(=O)[nH]1 [UTP, uridine triphosphate]
IC50 (MdP2′GT [1]; [7]): 2.5 ± 0.1 mM

O=c1ccn([C@@H]2O[C@H](CO)[C@@H](O)[C@H]2O)c(=O)[nH]1 [Uridine]
activity at 5000 µM (MdP2′GT [1]; [4]): 98.2 ± 2.12%

O=C(O)c1cc[c]([Hg+])cc1 [p-hydroxymercuribenzoate, p-hydroxymercuribenzoate (PHMB)]
IC50 (MdP2′GT [2]): 0.24 ± 0.07 mM

OCCS [β-mercaptoethanol]
Relative activity (MdP2′GT [1]; [5]): 99.02 ± 1.47% | Relative activity (MdP2′GT [1]; addition at 5 mM, compared to a control in which none is added, listed as β-ME): No obvious effects

Phloretin-2′-O-glycosyltransferase of Malus x domestica (MdP2′GT) (enzyme)
stoichiometry N [3]: 2

p-hydroxymercuribenzoate
IC50 (MdP2′GT [1]; [7]): 0.24 ± 0.07 mM
